Laboratory results taken from PubChem BioAssay (NCI).
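Exposure lasted 48 hours, with cells grown in 96-well plates and compounds tested at five concentrations. TGI marks complete inhibition of growth.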

Experiments:
Test in all cases: NCI anticancer screen, dose series, 48 h
U251 CNS = test system: U251 CNS
SNB-19 CNS = test system: SNB-19 CNS
SN12C renal = test system: SN12C renal
COLO 205 colon = test system: COLO 205 colon
NCI-H226 lung = test system: NCI-H226 lung
A549 NSCLC = test system: A549 NSCLC
SF-295 CNS = test system: SF-295 CNS
KM12 colon = test system: KM12 colon
SW-620 colon = test system: SW-620 colon
HOP-92 NSCLC = test system: HOP-92 NSCLC
786-0 renal = test system: 786-0 renal
CCRF-CEM leukemia = test system: CCRF-CEM leukemia
DU-145 prostate = test system: DU-145 prostate
MDA-N = test system: MDA-N
OVCAR-4 ovarian = test system: OVCAR-4 ovarian
HS 578T breast = test system: HS 578T breast
MDA-MB-435 = test system: MDA-MB-435
NCI/ADR-RES ovarian = test system: NCI/ADR-RES ovarian
UO-31 renal = test system: UO-31 renal
HT29 colon = test system: HT29 colon
IGROV1 ovarian = test system: IGROV1 ovarian
HCT-15 colon = test system: HCT-15 colon
ACHN renal = test system: ACHN renal
SR leukemia = test system: SR leukemia
M14 melanoma = test system: M14 melanoma
NCI-H522 lung = test system: NCI-H522 lung
MOLT-4 leukemia = test system: MOLT-4 leukemia
TK-10 renal = test system: TK-10 renal
HOP-62 NSCLC = test system: HOP-62 NSCLC
MDA-MB-231 breast = test system: MDA-MB-231 breast
MALME-3M melanoma = test system: MALME-3M melanoma
NCI-H23 lung = test system: NCI-H23 lung
SK-MEL-5 melanoma = test system: SK-MEL-5 melanoma
OVCAR-8 ovarian = test system: OVCAR-8 ovarian
MCF7 breast = test system: MCF7 breast
UACC-62 melanoma = test system: UACC-62 melanoma
RPMI-8226 leukemia = test system: RPMI-8226 leukemia
SK-OV-3 ovarian = test system: SK-OV-3 ovarian
LOX IMVI melanoma = test system: LOX IMVI melanoma
OVCAR-5 ovarian = test system: OVCAR-5 ovarian
SK-MEL-2 melanoma = test system: SK-MEL-2 melanoma
HCT-116 colon = test system: HCT-116 colon
SF-268 CNS = test system: SF-268 CNS
SK-MEL-28 melanoma = test system: SK-MEL-28 melanoma
PC-3 prostate = test system: PC-3 prostate
OVCAR-3 ovarian = test system: OVCAR-3 ovarian
A498 renal = test system: A498 renal
EKVX NSCLC = test system: EKVX NSCLC
SNB-75 CNS = test system: SNB-75 CNS
K-562 leukemia = test system: K-562 leukemia
NCI-H460 lung = test system: NCI-H460 lung
T-47D breast = test system: T-47D breast
CAKI-1 renal = test system: CAKI-1 renal
HCC-2998 colon = test system: HCC-2998 colon
SF-539 CNS = test system: SF-539 CNS
HL-60(TB) leukemia = test system: HL-60(TB) leukemia
RXF 393 renal = test system: RXF 393 renal
UACC-257 melanoma = test system: UACC-257 melanoma

Structure (SMILES): O=C1/C(=C/c2cccs2)NC(=S)N1CN1CCCCC1
- TGI (U251 CNS): > 100 µM
- TGI (SNB-19 CNS): > 100 µM
- TGI (SN12C renal): > 100 µM
- TGI (COLO 205 colon): 47.3 µM
- TGI (NCI-H226 lung): > 100 µM
- TGI (A549 NSCLC): > 100 µM
- TGI (SF-295 CNS): > 100 µM
- TGI (KM12 colon): > 100 µM
- TGI (SW-620 colon): > 100 µM
- TGI (HOP-92 NSCLC): > 100 µM
- TGI (786-0 renal): > 100 µM
- TGI (CCRF-CEM leukemia): > 100 µM
- TGI (DU-145 prostate): > 100 µM
- TGI (MDA-N): > 100 µM
- TGI (OVCAR-4 ovarian): > 100 µM
- TGI (HS 578T breast): > 100 µM
- TGI (MDA-MB-435): > 100 µM
- TGI (NCI/ADR-RES ovarian): > 100 µM
- TGI (UO-31 renal): > 100 µM
- TGI (HT29 colon): > 100 µM
- TGI (IGROV1 ovarian): > 100 µM
- TGI (HCT-15 colon): > 100 µM
- TGI (ACHN renal): > 100 µM
- TGI (SR leukemia): > 100 µM
- TGI (M14 melanoma): > 100 µM
- TGI (NCI-H522 lung): > 100 µM
- TGI (MOLT-4 leukemia): > 100 µM
- TGI (TK-10 renal): > 100 µM
- TGI (HOP-62 NSCLC): > 100 µM
- TGI (MDA-MB-231 breast): > 100 µM
- TGI (MALME-3M melanoma): > 100 µM
- TGI (NCI-H23 lung): > 100 µM
- TGI (SK-MEL-5 melanoma): > 100 µM
- TGI (OVCAR-8 ovarian): > 100 µM
- TGI (MCF7 breast): > 100 µM
- TGI (UACC-62 melanoma): > 100 µM
- TGI (RPMI-8226 leukemia): > 100 µM
- TGI (SK-OV-3 ovarian): > 100 µM
- TGI (LOX IMVI melanoma): > 100 µM
- TGI (OVCAR-5 ovarian): > 100 µM
- TGI (SK-MEL-2 melanoma): > 100 µM
- TGI (HCT-116 colon): > 100 µM
- TGI (SF-268 CNS): > 100 µM
- TGI (SK-MEL-28 melanoma): > 100 µM
- TGI (PC-3 prostate): > 100 µM
- TGI (OVCAR-3 ovarian): > 100 µM
- TGI (A498 renal): > 100 µM
- TGI (EKVX NSCLC): > 100 µM
- TGI (SNB-75 CNS): > 100 µM
- TGI (K-562 leukemia): > 100 µM

Structure (SMILES): C=C(C)CCC1CC=[N+]([O-])OC1C(C)(C)C (stereo unspecified)
- TGI (NCI-H460 lung): > 100 µM
- TGI (U251 CNS): > 100 µM
- TGI (T-47D breast): 90.1 µM
- TGI (SN12C renal): > 100 µM
- TGI (COLO 205 colon): > 100 µM
- TGI (NCI-H226 lung): 48.9 µM
- TGI (A549 NSCLC): 51.4 µM
- TGI (SF-295 CNS): > 100 µM
- TGI (KM12 colon): 64.8 µM
- TGI (SW-620 colon): > 100 µM
- TGI (HOP-92 NSCLC): > 100 µM
- TGI (786-0 renal): > 100 µM
- TGI (CCRF-CEM leukemia): 50.5 µM
- TGI (DU-145 prostate): > 100 µM
- TGI (MDA-N): > 100 µM
- TGI (CAKI-1 renal): 75.3 µM
- TGI (HS 578T breast): > 100 µM
- TGI (MDA-MB-435): 40.7 µM
- TGI (HCC-2998 colon): > 100 µM
- TGI (NCI/ADR-RES ovarian): 67.3 µM
- TGI (UO-31 renal): 85.7 µM
- TGI (HT29 colon): > 100 µM
- TGI (IGROV1 ovarian): > 100 µM
- TGI (HCT-15 colon): > 100 µM
- TGI (ACHN renal): > 100 µM
- TGI (SR leukemia): > 100 µM
- TGI (M14 melanoma): 63.5 µM
- TGI (NCI-H522 lung): 58.5 µM
- TGI (MOLT-4 leukemia): > 100 µM
- TGI (TK-10 renal): > 100 µM
- TGI (HOP-62 NSCLC): > 100 µM
- TGI (MDA-MB-231 breast): 66.8 µM
- TGI (SK-MEL-5 melanoma): > 100 µM
- TGI (OVCAR-8 ovarian): > 100 µM
- TGI (MCF7 breast): 89.9 µM
- TGI (UACC-62 melanoma): > 100 µM
- TGI (RPMI-8226 leukemia): > 100 µM
- TGI (SK-OV-3 ovarian): > 100 µM
- TGI (SF-539 CNS): > 100 µM
- TGI (HL-60(TB) leukemia): 27.2 µM
- TGI (LOX IMVI melanoma): 40.3 µM
- TGI (OVCAR-5 ovarian): > 100 µM
- TGI (HCT-116 colon): > 100 µM
- TGI (SF-268 CNS): > 100 µM
- TGI (RXF 393 renal): > 100 µM
- TGI (OVCAR-3 ovarian): > 100 µM
- TGI (A498 renal): > 100 µM
- TGI (UACC-257 melanoma): > 100 µM
- TGI (EKVX NSCLC): > 100 µM
- TGI (SNB-75 CNS): > 100 µM
- TGI (K-562 leukemia): > 100 µM
